The results in this text go back to PubChem BioAssay (NCI).

By TGI is commonly meant the concentration giving total growth inhibition. A higher TGI goes with lower sensitivity of the cells. In general, GI50 refers to the concentration that inhibits growth by half.

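Dose response: 5 concentrations. Exposure: 48 h. Format: 96-well plates. Endpoint: linear interpolation; highest concentration if not reached. GI50 is the concentration that inhibits growth by half. TGI is the concentration that stops growth completely.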 Bounds are passed on as bounds.

Test systems include NCI-H522 lung; SN12C renal; OVCAR-4 ovarian; LOX IMVI melanoma; RXF 393 renal; TK-10 renal; SF-539 CNS; HCT-15 colon; CCRF-CEM leukemia; MALME-3M melanoma; CAKI-1 renal; HL-60(TB) leukemia; SR leukemia.
Common to all, as to test: DTP human tumour cell line panel, 48 h

Regarding `CC(=O)NC(CCCCNCc1ccccc1)C(=O)NCc1ccccc1` (stereo not drawn), the TGI in the assay with NCI-H522 lung, with SN12C renal, in the assay with OVCAR-4 ovarian, in the assay on LOX IMVI melanoma, in the assay on RXF 393 renal and in the assay with TK-10 renal was above 100 µM in each case. Moreover, the TGI with SF-539 CNS, with HCT-15 colon, in the assay with CCRF-CEM leukemia, with MALME-3M melanoma and in the assay with CAKI-1 renal was above 100 µM in each case.

Regarding `CC(=O)NC(CCCNC(=O)N(C)N=O)C(=O)NCc1ccccc1` (stereo not drawn), the total growth inhibition concentration (TGI) in the assay with NCI-H522 lung, in the assay with SN12C renal, in the assay on OVCAR-4 ovarian, in the assay with LOX IMVI melanoma, in the assay on RXF 393 renal and in the assay on TK-10 renal was above 100 µM each time. The TGI in the assay with SF-539 CNS, in the assay with HCT-15 colon, in the assay with CCRF-CEM leukemia, in the assay on MALME-3M melanoma and in the assay on CAKI-1 renal was above 100 µM each time.

Consider `Cc1cc(N(CCC#N)CCC#N)ccc1/C=C1N=C(/C=C\c2ccccc2)N(NC(=O)CC(=O)Nc2ccccc2Cl)C\1=O`, for which the TGI in the assay with NCI-H522 lung, in the assay with SN12C renal, in the assay on HL-60(TB) leukemia, with OVCAR-4 ovarian, in the assay with LOX IMVI melanoma and with TK-10 renal was above 100 µM throughout. In addition, the TGI in the assay with SF-539 CNS, in the assay with HCT-15 colon, in the assay on CCRF-CEM leukemia, in the assay on MALME-3M melanoma and in the assay with CAKI-1 renal was above 100 µM each time.

For the compound `COc1cc([C@@H]2c3cc4c(cc3[C@@H](NCc3ccccc3F)C3COC(=O)[C@@H]32)OCO4)cc(OC)c1O` (stereo partly drawn), the TGI in the assay on NCI-H522 lung was 10.2 µM; in the assay on SN12C renal it was 8.08 µM; in the assay with HL-60(TB) leukemia, 4.26 µM; in the assay with OVCAR-4 ovarian, above 100 µM; in the assay on LOX IMVI melanoma it was 16.7 µM; in the assay on RXF 393 renal it was 54.7 µM. Further, the TGI in the assay on TK-10 renal was 81.4 µM; in the assay with SF-539 CNS it was 16.2 µM; with HCT-15 colon, 22.4 µM; with CCRF-CEM leukemia it was above 100 µM; in the assay on MALME-3M melanoma it was 28.3 µM; in the assay with CAKI-1 renal, 44.2 µM.

In the case of `CC(=O)OCC12CC(CC1OC(C)=O)c1ccccc12` (stereo not drawn), the TGI in the assay with SN12C renal, with HL-60(TB) leukemia, in the assay on OVCAR-4 ovarian, in the assay on LOX IMVI melanoma, in the assay with SR leukemia and in the assay with TK-10 renal was above 100 µM each time. Also, the TGI with HCT-15 colon, with CCRF-CEM leukemia, with MALME-3M melanoma and in the assay with CAKI-1 renal was above 100 µM throughout.

On to `CCOC(=O)C(C)NC(=O)NC12CC3CC(CC(F)(C3)C1)C2` (stereo not drawn), for which the TGI in the assay on NCI-H522 lung is above 100 µM; in the assay with HL-60(TB) leukemia, above 100 µM; in the assay with LOX IMVI melanoma it was above 100 µM; with RXF 393 renal, 86.6 µM; with TK-10 renal, above 100 µM; in the assay with SF-539 CNS, above 100 µM. Moreover, the TGI in the assay with CCRF-CEM leukemia and in the assay with MALME-3M melanoma was above 100 µM each time.

Turning to `CC1(O)CC2C(CC1SC1CC3C(CC1(C)O)C3(C)C)C2(C)C` (stereo not drawn), the TGI in the assay on SN12C renal is above 100 µM; with HL-60(TB) leukemia, 58.5 µM; in the assay on OVCAR-4 ovarian, 94.1 µM; with TK-10 renal, above 100 µM; in the assay with SF-539 CNS it was above 100 µM; in the assay on HCT-15 colon, above 100 µM. In addition, the figures for the total growth inhibition concentration (TGI) in the assay on CCRF-CEM leukemia and with MALME-3M melanoma were 95.9 µM and above 100 µM, respectively.

In the case of `COc1cccc(C2=NC(C(C)C)CO2)c1OC` (stereo not drawn), the TGI in the assay with NCI-H522 lung, in the assay on SN12C renal, in the assay with HL-60(TB) leukemia, in the assay on OVCAR-4 ovarian, in the assay on LOX IMVI melanoma and in the assay on RXF 393 renal was above 100 µM in each case. Further, the TGI with TK-10 renal, in the assay with SF-539 CNS, with HCT-15 colon, in the assay on CCRF-CEM leukemia, with MALME-3M melanoma and in the assay with CAKI-1 renal was above 100 µM each time.

In the case of `COc1cc2c(c(OC)c1OC)-c1ccc(SC)c(=O)cc1[C@@H](NC(=O)c1cccc([N+](=O)[O-])c1)CC2`, the TGI was 21.6 µM in the assay with SN12C renal; above 100 µM in the assay on OVCAR-4 ovarian; 0.0732 µM in the assay with SR leukemia; 55.3 µM in the assay with TK-10 renal; 0.0377 µM with SF-539 CNS; above 100 µM in the assay on HCT-15 colon. For the same compound, in the assay with CCRF-CEM leukemia, the TGI is above 100 µM. Also, the results for the GI50 with SR leukemia and with HCT-15 colon were 0.00851 µM and 0.027 µM, respectively.

Take `CC(C)N(C(=O)C12C3C4C5C3C1(C(=O)O)C5C42)C(C)C` (stereo not drawn): the TGI in the assay on NCI-H522 lung, in the assay with SN12C renal, in the assay on HL-60(TB) leukemia, in the assay with OVCAR-4 ovarian, in the assay on LOX IMVI melanoma and with TK-10 renal was above 100 µM each time. The TGI with SF-539 CNS, in the assay on HCT-15 colon, in the assay on CCRF-CEM leukemia, in the assay on MALME-3M melanoma and with CAKI-1 renal was above 100 µM throughout.
